Calls of active or inactive are those of the source. The calls are words filed in the database; no cut-off is given here.
Assays:
[1] = Stability in human liver microsomes assessed as metabolic turnover number at 10 uM after 15 mins by LC-MS/UV analysis; type: ADME, microsome; settings: read-out: Stability
[2] = Passive permeability of the compound in RRCK cells; type: ADME, cell-based, Canis lupus familiaris, MDCKII-LE; settings: dog, MDCK; read-out: permeability
[3] = biological target: T1, Transient receptor potential cation channel subfamily A member 1 (Homo sapiens, UniProt O75762); assay: Antagonist activity at full length human TRPA1 at holding potential of 15 mV measured after 1 min by PatchXpress electrophysiology assay
[4] = biological target: T1, Transient receptor potential cation channel subfamily A member 1; assay: Antagonist activity at full length human TRPA1 expressed in 293-T-REx cells by FLIPR assay
[5] = biological target: Transient receptor potential cation channel subfamily A member 1 (Rattus norvegicus, UniProt Q6RI86); assay: Antagonist activity at rat TRPA1 by electrophysiology assay
[6] = Drug uptake in Sprague-Dawley rat skin epidermal layer at 0.68 mg applied topically measured after 24 hrs; type: ADME, tissue-based, Skin epidermis; settings: topical or ocular, read-out: Drug uptake
[7] = Drug uptake in Sprague-Dawley rat skin dermal layer at 0.68 mg applied topically measured after 24 hrs; type: ADME, tissue-based, Dermis; settings: topical or ocular, read-out: Drug uptake
[8] = system: Rattus norvegicus; assay: Suppression of cinnamaldehyde-induced flare response in Sprague-Dawley rat skin at 50 to 100 mg/kg administered topically measured after 30 to 90 mins by recording blood flow for 30 mins by laser Doppler sonography method; type: functional, organism-based
[9] = system: Rattus norvegicus; assay: Suppression of cinnamaldehyde-induced flare response in Sprague-Dawley rat skin at 50 to 100 mg/kg administered topically preincubated for 30 to 90 mins measured by recording blood flow for 30 mins by laser Doppler sonography method; type: functional, organism-based
[10] = Lipophilicity, log D of the compound; type: physicochemical; settings: octanol/water
[11] = Ratio of permeability from basolateral to apical side over apical to basolateral side in RRCK cells expressing MDR1; type: ADME, cell-based, Canis lupus familiaris; settings: dog, mdckii-le

T1 sequence (O75762 whole entry): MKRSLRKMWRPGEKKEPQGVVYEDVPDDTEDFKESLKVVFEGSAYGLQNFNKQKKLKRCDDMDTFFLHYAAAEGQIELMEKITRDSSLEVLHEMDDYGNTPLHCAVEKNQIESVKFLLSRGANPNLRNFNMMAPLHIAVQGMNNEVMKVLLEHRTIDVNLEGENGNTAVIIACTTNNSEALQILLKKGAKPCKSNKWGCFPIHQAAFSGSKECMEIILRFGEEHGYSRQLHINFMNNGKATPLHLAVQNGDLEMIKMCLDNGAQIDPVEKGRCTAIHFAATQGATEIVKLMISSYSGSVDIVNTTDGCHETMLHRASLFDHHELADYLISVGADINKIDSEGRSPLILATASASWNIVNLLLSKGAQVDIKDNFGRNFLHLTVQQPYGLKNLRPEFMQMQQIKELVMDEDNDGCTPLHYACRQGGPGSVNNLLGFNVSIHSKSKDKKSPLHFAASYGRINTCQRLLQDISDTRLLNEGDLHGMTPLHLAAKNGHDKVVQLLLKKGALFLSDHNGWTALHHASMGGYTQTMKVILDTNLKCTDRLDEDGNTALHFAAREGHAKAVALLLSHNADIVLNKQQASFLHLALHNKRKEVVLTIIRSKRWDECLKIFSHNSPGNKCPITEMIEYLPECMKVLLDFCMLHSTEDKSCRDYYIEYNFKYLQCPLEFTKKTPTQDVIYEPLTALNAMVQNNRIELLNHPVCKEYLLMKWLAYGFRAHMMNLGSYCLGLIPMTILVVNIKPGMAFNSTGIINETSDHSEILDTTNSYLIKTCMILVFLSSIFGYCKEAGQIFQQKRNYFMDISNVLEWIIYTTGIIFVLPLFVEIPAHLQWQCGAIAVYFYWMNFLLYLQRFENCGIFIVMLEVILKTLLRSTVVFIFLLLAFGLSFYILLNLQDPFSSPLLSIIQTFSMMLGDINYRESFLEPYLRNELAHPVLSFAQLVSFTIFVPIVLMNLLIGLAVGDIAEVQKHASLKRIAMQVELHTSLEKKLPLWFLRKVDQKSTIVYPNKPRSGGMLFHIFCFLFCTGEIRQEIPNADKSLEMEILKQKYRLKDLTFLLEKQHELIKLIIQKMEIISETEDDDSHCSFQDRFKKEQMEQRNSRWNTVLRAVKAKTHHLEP
Transient receptor potential cation channel subfamily A member 1 (Rattus norvegicus, UniProt Q6RI86), sequence (Q6RI86 whole entry): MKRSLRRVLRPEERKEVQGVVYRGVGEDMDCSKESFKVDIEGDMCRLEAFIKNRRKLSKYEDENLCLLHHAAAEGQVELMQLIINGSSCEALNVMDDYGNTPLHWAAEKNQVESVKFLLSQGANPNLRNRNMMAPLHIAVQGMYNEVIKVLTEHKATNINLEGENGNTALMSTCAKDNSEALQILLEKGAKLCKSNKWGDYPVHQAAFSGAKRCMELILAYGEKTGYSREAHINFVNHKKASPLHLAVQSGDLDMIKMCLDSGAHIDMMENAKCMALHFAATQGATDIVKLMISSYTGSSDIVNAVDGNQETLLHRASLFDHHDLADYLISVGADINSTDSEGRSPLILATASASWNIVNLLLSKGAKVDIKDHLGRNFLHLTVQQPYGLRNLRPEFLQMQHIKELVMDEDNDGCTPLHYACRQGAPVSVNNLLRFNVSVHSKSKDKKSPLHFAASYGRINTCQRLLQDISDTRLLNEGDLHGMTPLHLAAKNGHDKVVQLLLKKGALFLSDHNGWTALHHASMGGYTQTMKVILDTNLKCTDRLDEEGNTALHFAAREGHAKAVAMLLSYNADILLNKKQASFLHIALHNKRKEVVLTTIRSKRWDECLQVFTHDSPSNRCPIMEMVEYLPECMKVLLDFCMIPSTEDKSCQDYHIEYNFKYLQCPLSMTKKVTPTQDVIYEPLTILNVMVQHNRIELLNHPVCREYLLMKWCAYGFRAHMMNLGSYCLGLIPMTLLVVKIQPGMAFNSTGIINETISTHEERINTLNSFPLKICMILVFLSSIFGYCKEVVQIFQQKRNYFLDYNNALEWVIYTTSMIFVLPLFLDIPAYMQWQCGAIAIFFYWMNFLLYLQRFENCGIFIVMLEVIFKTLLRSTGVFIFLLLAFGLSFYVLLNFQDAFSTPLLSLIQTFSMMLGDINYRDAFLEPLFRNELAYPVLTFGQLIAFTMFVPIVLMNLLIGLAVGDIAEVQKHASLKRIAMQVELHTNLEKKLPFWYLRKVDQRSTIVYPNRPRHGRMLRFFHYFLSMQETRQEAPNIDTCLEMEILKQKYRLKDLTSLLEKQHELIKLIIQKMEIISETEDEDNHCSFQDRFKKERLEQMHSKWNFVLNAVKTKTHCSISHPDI

SMILES: O=C(NCC(CC1CCOCC1)N1CCC(O)(C(F)(F)F)CC1)C1(c2ccc(Cl)cc2)CCCC1 (racemic)
- microsomal CLint at 10 µM [1]: > 320 µL/min/mg
- Papp [2]: 3 ×10⁻⁶ cm/s
- IC50 [3]: 1900 nM

SMILES: O=C(NCC(Cc1ccccc1)N1CCN(c2ccccn2)CC1)C1(c2ccc(Cl)cc2)CCCC1 (racemic)
- microsomal CLint at 10 µM [1]: 312 µL/min/mg
- Papp [2]: < 1 ×10⁻⁶ cm/s
- IC50 [3]: > 1000 nM

SMILES: O=C(NC[C@@H](Cc1ccccc1)N1CCC(O)(C(F)(F)F)CC1)C1(c2ccc(Cl)cc2)CC1
- microsomal CLint at 10 µM [1]: > 320 µL/min/mg
- IC50 [3]: 53 nM

SMILES: CC1(C(=O)NCC(Cc2ccccc2)N2CCC(O)(C(F)(F)F)CC2)CCCCC1 (racemic)
- microsomal CLint at 10 µM [1]: > 320 µL/min/mg
- IC50 [3]: 851 nM

SMILES: O=C(NCC(Cc1ccc(F)cc1)N1CC2CCC1C2)C1(c2ccc(F)cc2)CC1 (racemic)
- microsomal CLint at 10 µM [1]: > 320 µL/min/mg
- IC50 [4]: > 10000 nM

SMILES: CC(C)(C)[C@H]1CC[C@H](C(=O)NCC(Cc2ccccc2)N2CCC(O)(C(F)(F)F)CC2)CC1 (mixture of isomers)
- microsomal CLint at 10 µM [1]: > 320 µL/min/mg
- IC50 [3]: 101 nM

SMILES: O=C(NCC(Cc1ccccc1)N1CCC(O)(C(F)(F)F)C1)C1(c2ccc(F)cc2)CCC1 (racemic)
- IC50 [3]: 309 nM

SMILES: O=C(NCC(Cc1ccc(F)cc1)N1CCC2(C1)CC2(F)F)C1(c2ccc(F)cc2)CCCC1 (racemic)
- microsomal CLint at 10 µM [1]: > 320 µL/min/mg
- Papp [2]: 0.3 ×10⁻⁶ cm/s
- IC50 [4]: > 10000 nM

SMILES: O=C(NCC(Cc1ccccc1)N1CCC(O)(C(F)(F)F)CC1)C1(c2ccc(Cl)cc2)CC1 (racemic)
- microsomal CLint at 10 µM [1]: > 320 µL/min/mg
- Papp [2]: 2 ×10⁻⁶ cm/s
- IC50 [3]: 73 nM

SMILES: Cc1nc(C(=O)NCC(Cc2ccccc2)N2CCC(O)(C(F)(F)F)CC2)c(C(F)(F)F)o1 (racemic)
- microsomal CLint at 10 µM [1]: 146 µL/min/mg
- IC50 [4]: > 10000 nM

SMILES: CN1CCN(C(CNC(=O)C2(c3ccc(Cl)cc3)CCCC2)Cc2ccccc2)CC1 (racemic)
- microsomal CLint at 10 µM [1]: > 320 µL/min/mg
- Papp [2]: 3 ×10⁻⁶ cm/s
- IC50 [3]: > 3000 nM

SMILES: O=C(NCC(Cc1ccc(F)cc1)N1CCC2(CC1)COC2)C1(c2ccc(F)cc2)CCCC1 (racemic)
- microsomal CLint at 10 µM [1]: > 320 µL/min/mg
- IC50 [4]: > 10000 nM

SMILES: CC(C)(C)c1ccc(CC(=O)NCC(Cc2ccccc2)N2CCC(O)(C(F)(F)F)CC2)cc1 (racemic)
- microsomal CLint at 10 µM [1]: > 320 µL/min/mg
- IC50 [4]: > 10000 nM

SMILES: CCCC(C)(C)C(=O)NC[C@@H](Cc1ccccc1)N1CCC(O)(C(F)(F)F)CC1
- IC50 [4]: 71 nM

SMILES: CN1CCC(CC(CNC(=O)C2(c3ccc(Cl)cc3)CCCC2)N2CCC(O)(C(F)(F)F)CC2)CC1 (racemic)
- microsomal CLint at 10 µM [1]: 42 µL/min/mg
- Papp [2]: 1 ×10⁻⁶ cm/s
- IC50 [3]: 26700 nM

SMILES: CC(C)c1csc(C(=O)NCC(Cc2ccccc2)N2CCC(O)(C(F)(F)F)CC2)n1 (racemic)
- microsomal CLint at 10 µM [1]: > 320 µL/min/mg
- IC50 [3]: 159 nM

SMILES: O=C(NCC(Cc1ccc(F)cc1)N1CCC(C(F)(F)F)C1)C1(c2ccc(F)cc2)CCCC1 (racemic)
- IC50 [3]: 1450 nM

SMILES: O=C(NCC(Cc1ccccc1)N1CCC(C(F)(F)F)CC1)C1(c2ccc(F)cc2)CCCC1 (racemic)
- microsomal CLint at 10 µM [1]: 238 µL/min/mg
- Papp [2]: 6 ×10⁻⁶ cm/s
- IC50 [3]: 673 nM

SMILES: O=C(NCC(c1ccccc1)N1CCC(O)(C(F)(F)F)CC1)C1(c2ccc(Cl)cc2)CC1 (racemic)
- microsomal CLint at 10 µM [1]: > 320 µL/min/mg
- Papp [2]: 4 ×10⁻⁶ cm/s
- IC50 [3]: > 3000 nM

SMILES: O[C@]12CCCC[C@@H]1CCC[C@H]2Nc1ccc(F)cc1
- IC50 [5]: 8 nM
- IC50 [3]: 10 nM
- concentration at 24 h [6]: 86000 ng/g
- concentration at 24 h [7]: 232000 ng/g

SMILES: CN(CC(Cc1ccccc1)N1CCC(O)(C(F)(F)F)CC1)C(=O)C1(c2ccc(Cl)cc2)CCCC1 (racemic)
- microsomal CLint at 10 µM [1]: > 320 µL/min/mg
- IC50 [3]: > 1000 nM

SMILES: O=C(NCC(Cc1ccccc1)N1CCC(O)(C(F)(F)F)CC1)C1(c2ccc(Cl)cc2)CCCC1 (racemic)
- microsomal CLint at 10 µM [1]: > 320 µL/min/mg
- Papp [2]: 1 ×10⁻⁶ cm/s
- IC50 [3]: 17 nM
- Activity [8]: Active
- Activity [9]: Active
- IC50 [4]: 374 nM

SMILES: O=C(NC[C@H](Cc1ccccc1)N1CCC(O)(C(F)(F)F)CC1)C1(c2ccc(Cl)cc2)CCCC1
- microsomal CLint at 10 µM [1]: > 320 µL/min/mg
- Papp [2]: 1 ×10⁻⁶ cm/s
- logD [10]: 4.7
- Ratio [11]: 1
- IC50 [3]: 1900 nM

SMILES: O=C(NCC(Cc1ccccc1)N1CCC(O)(C(F)(F)F)CC1)c1cc(C(F)(F)F)ccn1 (racemic)
- microsomal CLint at 10 µM [1]: 285 µL/min/mg
- Papp [2]: 8 ×10⁻⁶ cm/s
- IC50 [3]: 83 nM

SMILES: O=C(NC[C@H](Cc1ccccc1)N1CCC(O)(C(F)(F)F)CC1)C1(c2ccc(Cl)cc2)CC1
- microsomal CLint at 10 µM [1]: > 320 µL/min/mg
- IC50 [3]: 474 nM

SMILES: O=C(NCC(Cc1ccc(F)cc1)N1C2CCC1CC(O)(C(F)(F)F)C2)C1(c2ccc(F)cc2)CCCC1 (racemic)
- microsomal CLint at 10 µM [1]: > 320 µL/min/mg
- IC50 [3]: 825 nM

SMILES: O=C1CCC2(CCN(C(CNC(=O)C3(c4ccc(F)cc4)CC3)Cc3ccc(F)cc3)CC2)N1 (racemic)
- microsomal CLint at 10 µM [1]: 168 µL/min/mg
- IC50 [4]: > 10000 nM

SMILES: O=C(NCC(Cc1ccc(F)cc1)N1CCC(O)C1)C1(c2ccc(F)cc2)CCCC1 (racemic)
- microsomal CLint at 10 µM [1]: 170 µL/min/mg
- IC50 [4]: > 10000 nM

SMILES: CC(C)(C(=O)NCC(Cc1ccccc1)N1CCC(O)(C(F)(F)F)CC1)C(F)(F)F (racemic)
- microsomal CLint at 10 µM [1]: 284 µL/min/mg
- Papp [2]: 31 ×10⁻⁶ cm/s
- IC50 [3]: 91 nM

SMILES: CCCC(C)(C)C(=O)NC[C@H](Cc1ccccc1)N1CCC(O)(C(F)(F)F)CC1
- IC50 [4]: 1700 nM

SMILES: O=C(NCC(Cc1ccccc1)N1CCC(O)(C(F)(F)F)CC1)C1(C(F)(F)F)CC1 (racemic)
- microsomal CLint at 10 µM [1]: 149 µL/min/mg
- IC50 [3]: 1000 nM

SMILES: CC(C)C(CNC(=O)C1(c2ccc(Cl)cc2)CCCC1)N1CCC(O)(C(F)(F)F)CC1 (racemic)
- microsomal CLint at 10 µM [1]: > 320 µL/min/mg
- Papp [2]: < 1 ×10⁻⁶ cm/s
- IC50 [3]: > 1000 nM

From ChEMBL document CHEMBL4190175 (Medchemcomm, 2016)
